How the values were obtained:
[1] = Cooling effect of synthesised compounds (test not described); settings: ability to elicit a cooling sensation; no test details given
[2] = system: Neurons from trigeminal ganglia of Wistar rats; assay: Ca2+ response of cultured trigeminal neurons to test compounds (Fura-2 fluorescence); format: cell-based; settings: 100 μM final test concentration; cellular Ca2+ levels, cultured rat trigeminal neurons; relative to compound 1 (icilin)
Protocol: The efficacy of different compounds according to the invention was tested in vitro, by exposing cultured neurons to the compounds and monitoring the cellular Ca^2+ levels.
The compounds were dissolved in DMSO by ultrasonication to a 0.1 M solution. 5 μl of this stock was added to 5 mg of cyclodextrin and 5 ml of 140 Na-tyrode, to achieve a 100 μM final test concentration.
Neurons from trigeminal ganglia of Wistar rats were prepared as described in U.S. Pat. No. 5,811,256. After 24 hours of cultivation, the responsiveness of the neurons to different compounds was measured according to the general procedure described by McKemy et al (Nature, Vol. 416, 2002, 52–58). The test protocol described by McKemy was modified slightly, by using the fluorescent Ca^2+ indicator Fura-2. Detection of the cellular fluorescence signals was performed by videomicroscopical analysis. The neurons were given a cold stimulus by a thermocoupling device and were subsequently tested for responsiveness to the test compounds by superfusion with solutions containing the test compounds while continuously monitoring the cellular Ca^2+ levels.
The results were recorded for compounds 1 to 3 and menthol, and are expressed below, as a percentage compared to the activity for compound 1 (icilin).

[3] = system: mucous membranes (nostrils, lips and eyelids) of the researchers; settings: in contact with mucous membranes (nostrils, lips and eyelids), also when ingested; cited from earlier work

| Structure (SMILES) | cooling effect [1] | Activity (% relative to Compound 1) [2] [%] | sensations of coldness [3] |
| --- | --- | --- | --- |
| COc1cccc(C2=CCN(c3ccccc3O)C(=O)N2)c1 [1-(2′-hydroxyphenyl)-4-(3″-methoxyphenyl)-1,2,3,6-tetrahydropyrimidine-2-one] | good cooling effects |  |  |
| O=C1NC(c2ccccc2)=CCN1c1ccccc1O [1-(2′-hydroxyphenyl)-4-phenyl-1,2,3,6-tetrahydropyrimidine-2-one] | good cooling effects |  |  |
| O=C1NC(c2cccc([N+](=O)[O-])c2)=CCN1c1ccccc1C(F)(F)F [1-(2′-trifluoromethylphenyl)-4-(3″-nitrophenyl)-1,2,3,6-tetrahydropyrimidine-2-one] | good cooling effects |  |  |
| O=C1NC(c2cccc([N+](=O)[O-])c2)=CCN1c1ccccc1 [1-phenyl-4-(3″-nitrophenyl)-1,2,3,6-tetrahydropyrimidine-2-one] | good cooling effects |  |  |
| O=C1NC(c2ccccc2[N+](=O)[O-])=CCN1c1ccccc1O [Compound 1, 1-[2-hydroxyphenyl]-4-[2-nitrophenyl]-1,2,3,6-tetrahydropyrimidine-2-one] |  | 100 | produced sensations of coldness |
| O=C1NC(c2cccc(Cl)c2)=CCN1c1ccccc1O [Compound 3, 1-(2′-hydroxyphenyl)-4-(3″-chlorophenyl)-1,2,3,6-tetrahydro-pyrimidine-2-one] |  | 35 |  |
| CC1CCC(C(C)C)C(O)C1 (centres unmarked) [Menthol, 2-isopropyl-5-methyl-cyclohexanol] |  | 42 |  |

Reference: patent US7045624B2, “Compounds and their uses” (Conopco, Inc., priority 2002, dated 2006)
